What was measured:
BRAF V600E = target: T1, BRAF V600E (Homo sapiens, UniProt P15056, V600E); test: LanthaScreen kinase assay, BRAF V600E; assay type: biochemical; details: ATP 10 μM
T1 construct: purchased Invitrogen
Description: (§1) The inhibitory activities of compounds against BRAF or BRAF V600E protein were measured using Invitrogne's LanthaScreen™ kinase assay which is based on fluorescein-labeled MAP2K1 as a substrate. The assay procedure is described as follows.
(§2) The scale utilized in Table 3 is as follows: ++++ less than 50 nM; +++ between 50 and 100 nM; ++ between 100 nM and 1 μM; and + greater than 1 μM.

[1] = tested on: A375 (human melanoma cell, BRAF V600E Mutant); test: Inhibition of cancer cell growth, MTT or MTS assay, A375; assay type: cell-based; details: A-375, 72 h, highest concentration 10 μM (Table 5)
Description: A375 (human melanoma cell, BRAF V600E Mutant), CHL-1 (human melanoma cell, BRAF wild type), SK-MEL-28 (human melanoma cell, BRAF V600E Mutant) and SK-MEL-31(human melanoma cell, Braf WT Mutant) were purchased from ATCC (American Type Culture Collection, Manassas, Va.). All cell lines were maintained in RPMI 1640 (Hyclone) or DMEM (Hyclone) supplemented with 10% fetal bovine serum (FBS, Hyclone), glutamine (2 mM, Hyclone), and antibiotics (penicillin 100 U/mL and streptomycin 50 μg/mL) at 37° C. in a humidified atmosphere of 5% CO2 in air.
To test IC50 of inhibition of individual compounds against each cell line, A375, SK-MEL-28and SK-MEL-31 cells were first plated in 96-well plates at densities of 3000 cells/well, and CHL-1 2500 cells/well. Cells were then incubated to allow cells to adhere and grow for 24 h. Cells were then treated with a series of concentrations of compounds for 72 h. The highest concentration of compounds was 10 μM for A375 and SK-MEL-28 cells and 100 μM for CHL-1 and SK-MEL-31 cells. Cells were then removed from the incubator and medium was removed by inverting and tapping the plates. 100 μL of MTT (0.5 mg/ml) or 10 μL or MTS was added to each well followed by an incubated at 37° C. for 4 h. Then MTT was removed and 200 μL of DMSO was added to each well, followed by reading the ODs at 570 nm after a 5 second shaking cycle in a 96-well spectrophotometer. For MTS method, MTS was not removed, and the incubated solutions were directly put in a 96-well spectrophotometer for the reading of the ODs at 492 nm.
IC50 was calculated by plotting the concentration of compound vs the percentage of inhibition in treated wells using GraphPad Prism 5. […] The scale utilized in Table 5 is as follows: +++ less than 500 nM; ++ between 500 nM and 1 μM; and + greater than 1 μM.

BRAF = target: T2, BRAF (Homo sapiens, UniProt P15056); test: LanthaScreen kinase assay, BRAF; assay type: biochemical; details: ATP 1 μM
T2 construct: purchased Invitrogen
T2 sequence (P15056 whole entry): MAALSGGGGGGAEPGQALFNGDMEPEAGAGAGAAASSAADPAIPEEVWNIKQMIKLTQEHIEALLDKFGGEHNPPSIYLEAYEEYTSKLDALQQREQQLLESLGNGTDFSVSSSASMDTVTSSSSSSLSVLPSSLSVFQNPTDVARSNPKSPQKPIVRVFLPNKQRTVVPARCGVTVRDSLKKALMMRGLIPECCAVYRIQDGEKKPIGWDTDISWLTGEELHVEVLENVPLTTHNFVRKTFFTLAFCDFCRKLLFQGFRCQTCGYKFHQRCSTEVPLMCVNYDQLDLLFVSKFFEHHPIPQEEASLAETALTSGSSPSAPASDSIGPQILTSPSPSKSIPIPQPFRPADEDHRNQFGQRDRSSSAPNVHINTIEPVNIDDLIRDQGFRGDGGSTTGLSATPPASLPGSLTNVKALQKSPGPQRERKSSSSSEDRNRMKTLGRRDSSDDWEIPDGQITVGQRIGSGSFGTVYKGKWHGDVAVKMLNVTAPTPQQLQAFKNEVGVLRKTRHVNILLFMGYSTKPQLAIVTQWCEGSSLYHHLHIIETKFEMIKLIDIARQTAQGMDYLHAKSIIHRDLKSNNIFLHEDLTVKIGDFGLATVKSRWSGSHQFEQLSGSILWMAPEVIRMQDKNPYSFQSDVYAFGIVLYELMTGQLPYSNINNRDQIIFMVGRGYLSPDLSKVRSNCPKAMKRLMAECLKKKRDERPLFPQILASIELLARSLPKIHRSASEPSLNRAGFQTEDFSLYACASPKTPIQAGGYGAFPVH
Description: as §1, §2

T1 sequence (P15056 whole entry V600E): as the sequence (P15056 whole entry) above, with V600E counted along it

| Structure (SMILES) | IC50 (BRAF V600E) [nM] | IC50 [1] [nM] | IC50 (BRAF) [nM] |
| --- | --- | --- | --- |
| O=C(c1ccc2ncc(N3CCOCC3)nc2c1)c1c(F)c(F)cc(NS(=O)(=O)C2CC2)c1F [Compound C29, N-(2,4,5-trifluoro-3-(3-morpholinoquinoxaline-6-carbonyl)phenyl)cyclopropanesulfonamide] | 100 to 1000 | < 500 | 100 to 1000 |
| CCCS(=O)(=O)Nc1cc(F)c(F)c(C(=O)c2ccc3ncc(-c4ccc(F)cc4)nc3c2)c1F [Compound C28, N-(2,4,5-trifluoro-3-(3-(4-fluorophenyl)quinoxaline-6-carbonyl)phenyl)propane-1-sulfonamide] | 50 to 100 | 500 to 1000 | 100 to 1000 |
| CCCS(=O)(=O)Nc1cc(F)c(F)c(C(=O)c2ccc3ncc(-c4cccnc4)nc3c2)c1F [Compound C30, N-(2,4,5-trifluoro-3-(3-(pyridin-3-yl)quinoxaline-6-carbonyl)phenyl)propane-1-sulfonamide] | < 50 | < 500 | < 50 |
| CCCS(=O)(=O)Nc1ccc(F)c(C(=O)c2ccc3ncc(N4CCOCC4)nc3c2)c1Cl [Compound C41, N-(2-chloro-4-fluoro-3-(3-morpholinoquinoxaline-6-carbonyl)phenyl)propane-1-sulfonamide] | > 1000 | – | > 1000 |
| CCCS(=O)(=O)Nc1cc(F)c(F)c(C(=O)c2ccc3ncc(N4CCNCC4)nc3c2)c1F [Compound C24, N-(2,4,5-trifluoro-3-(3-(piperazin-1-yl)quinoxaline-6-carbonyl)phenyl)propane-1-sulfonamide] | < 50 | < 500 | < 50 |
| CCCS(=O)(=O)Nc1cc(F)c(F)c(C(=O)c2ccc3ncc(-c4ccncc4)nc3c2)c1F [Compound C33, N-(2,4,5-trifluoro-3-(3-(pyridin-4-yl)quinoxaline-6-carbonyl)phenyl)propane-1-sulfonamide] | < 50 | < 500 | < 50 |
| CCCS(=O)(=O)Nc1ccc(F)c(C(=O)c2ccc3ncc(N4CCOCC4)nc3c2)c1F [Compound C38, N-(2,4-difluoro-3-(3-morpholinoquinoxaline-6-carbonyl)phenyl)propane-1-sulfonamide] | 100 to 1000 | < 500 | 100 to 1000 |
| CCCS(=O)(=O)Nc1cc(F)c(F)c(C(=O)c2ccc3ncc(-n4ccnc4)nc3c2)c1F [Compound C23, N-(3-(3-(1H-imidazol-1-yl)quinoxaline-6-carbonyl)-2,4,5-trifluorophenyl)propane-1-sulfonamide] | < 50 | < 500 | < 50 |
| CCCS(=O)(=O)Nc1cc(F)c(F)c(C(=O)c2ccc3ncc(C)nc3c2)c1F [Compound C19, N-(2,4,5-trifluoro-3-(3-methylquinoxaline-6-carbonyl)phenyl)propane-1-sulfonamide] | 100 to 1000 | > 1000 | 100 to 1000 |
| CCCS(=O)(=O)Nc1cc(F)c(F)c(C(=O)c2ccc3ncc(F)nc3c2)c1F [Compound C35, N-(2,4,5-trifluoro-3-(3-fluoroquinoxaline-6-carbonyl)phenyl)propane-1-sulfonamide] | < 50 | > 1000 | 50 to 100 |
| CCCS(=O)(=O)Nc1cc(F)c(F)c(C(=O)c2ccc3ncc(-c4cn[nH]c4)nc3c2)c1F [Compound C27, N-(3-(3-(1H-pyrazol-4-yl)quinoxaline-6-carbonyl)-2,4,5-trifluorophenyl)propane-1-sulfonamide] | < 50 | < 500 | < 50 |
| CCCS(=O)(=O)Nc1cc(F)c(F)c(C(=O)c2ccc3ncc(-n4ccnc4C)nc3c2)c1F [Compound C20, N-(2,4,5-trifluoro-3-(3-(2-methyl-1H-imidazol-1-yl)quinoxaline-6-carbonyl)phenyl)propane-1-sulfonamide] | < 50 | < 500 | 50 to 100 |
| CCCS(=O)(=O)Nc1cc(F)c(F)c(C(=O)c2ccc3ncc(C#N)nc3c2)c1F [Compound C36, N-(3-(3-cyanoquinoxaline-6-carbonyl)-2,4,5-trifluorophenyl)propane-1-sulfonamide] | < 50 | 500 to 1000 | 50 to 100 |
| CCCS(=O)(=O)Nc1cc(F)c(F)c(C(=O)c2ccc3ncc(-c4ccccc4)nc3c2)c1F [Compound C26, N-(2,4,5-trifluoro-3-(3-phenylquinoxaline-6-carbonyl)phenyl)propane-1-sulfonamide] | < 50 | 500 to 1000 | 100 to 1000 |
| CCCS(=O)(=O)Nc1cc(F)c(F)c(C(=O)c2ccc3ncc(-c4ccc(C)nc4)nc3c2)c1F [Compound C34, N-(2,4,5-trifluoro-3-(3-(6-methylpyridin-3-yl)quinoxaline-6-carbonyl)phenyl)propane-1-sulfonamide] | < 50 | < 500 | < 50 |
| CCCS(=O)(=O)Nc1cc(F)c(F)c(C(=O)c2ccc3ncc(OCCOC)nc3c2)c1F [Compound C22, N-(2,4,5-trifluoro-3-(3-(2-methoxyethoxy)quinoxaline-6-carbonyl)phenyl)propane-1-sulfonamide] | 50 to 100 | < 500 | 50 to 100 |
| CCCS(=O)(=O)Nc1cc(F)c(F)c(C(=O)c2ccc3ncc(-n4cnc(C)c4)nc3c2)c1F [Compound C21, N-(2,4,5-trifluoro-3-(3-(4-methyl-1H-imidazol-1-yl)quinoxaline-6-carbonyl)phenyl)propane-1-sulfonamide] | < 50 | < 500 | < 50 |
| CCCS(=O)(=O)Nc1cc(F)c(F)c(C(=O)c2ccc3ncc(-n4cncc4C)nc3c2)c1F [Compound C40, N-(2,4,5-trifluoro-3-(3-(5-methyl-1H-imidazol-1-yl)quinoxaline-6-carbonyl)phenyl)propane-1-sulfonamide] | < 50 | < 500 | 50 to 100 |

From patent US9295671B2, “Benzenesulfonamide derivatives of quinoxaline, pharmaceutical compositions thereof, and their use in methods for treating cancer” (NEUPHARMA, INC., priority 2011, dated 2016)
